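Cells were grown in 96-well plates and exposed to each compound for 48 hours at five concentrations; endpoints were interpolated linearly between bracketing concentrations, or set to the highest concentration if not reached. GI50 is the concentration that inhibits growth by half. The concentration for full growth arrest is given as TGI.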
Columns and labels:
Experiment in all cases: DTP human tumour cell line panel, 48 h
UACC-62 melanoma = tested on: UACC-62 melanoma
TK-10 renal = tested on: TK-10 renal
DU-145 prostate = tested on: DU-145 prostate
MDA-MB-231 breast = tested on: MDA-MB-231 breast
MALME-3M melanoma = tested on: MALME-3M melanoma
PC-3 prostate = tested on: PC-3 prostate
SN12C renal = tested on: SN12C renal
HL-60(TB) leukemia = tested on: HL-60(TB) leukemia
A549 NSCLC = tested on: A549 NSCLC
HCC-2998 colon = tested on: HCC-2998 colon
MDA-MB-468 breast = tested on: MDA-MB-468 breast
LOX IMVI melanoma = tested on: LOX IMVI melanoma
HOP-92 NSCLC = tested on: HOP-92 NSCLC
CAKI-1 renal = tested on: CAKI-1 renal
HT29 colon = tested on: HT29 colon
UACC-257 melanoma = tested on: UACC-257 melanoma
SF-268 CNS = tested on: SF-268 CNS
SK-MEL-2 melanoma = tested on: SK-MEL-2 melanoma
HOP-62 NSCLC = tested on: HOP-62 NSCLC
EKVX NSCLC = tested on: EKVX NSCLC
SNB-75 CNS = tested on: SNB-75 CNS
SF-295 CNS = tested on: SF-295 CNS
HCT-116 colon = tested on: HCT-116 colon
SR leukemia = tested on: SR leukemia
MOLT-4 leukemia = tested on: MOLT-4 leukemia
IGROV1 ovarian = tested on: IGROV1 ovarian
NCI-H23 lung = tested on: NCI-H23 lung
HS 578T breast = tested on: HS 578T breast
SK-OV-3 ovarian = tested on: SK-OV-3 ovarian
NCI-H226 lung = tested on: NCI-H226 lung
MCF7 breast = tested on: MCF7 breast
CCRF-CEM leukemia = tested on: CCRF-CEM leukemia
M14 melanoma = tested on: M14 melanoma
OVCAR-4 ovarian = tested on: OVCAR-4 ovarian
BT-549 breast = tested on: BT-549 breast
RXF 393 renal = tested on: RXF 393 renal
K-562 leukemia = tested on: K-562 leukemia
A498 renal = tested on: A498 renal
SK-MEL-5 melanoma = tested on: SK-MEL-5 melanoma
RPMI-8226 leukemia = tested on: RPMI-8226 leukemia
T-47D breast = tested on: T-47D breast

SMILES: O=C(/C=C/c1ccc(F)cc1)c1nc2ccccc2n1Cc1ccc(F)cc1
- GI50 (UACC-62 melanoma): 2.02 µM
- TGI (UACC-62 melanoma): 7.09 µM
- GI50 (TK-10 renal): 2.97 µM
- TGI (TK-10 renal): > 100 µM
- GI50 (DU-145 prostate): 3.48 µM
- TGI (DU-145 prostate): > 100 µM
- GI50 (MDA-MB-231 breast): 2.25 µM
- TGI (MDA-MB-231 breast): 5.59 µM
- GI50 (MALME-3M melanoma): 2.61 µM
- TGI (MALME-3M melanoma): 9.59 µM
- GI50 (PC-3 prostate): 3.63 µM
- TGI (PC-3 prostate): > 100 µM
- GI50 (SN12C renal): 3.64 µM
- TGI (SN12C renal): > 100 µM
- GI50 (HL-60(TB) leukemia): 1.73 µM
- TGI (HL-60(TB) leukemia): 4.81 µM
- GI50 (A549 NSCLC): 3.92 µM
- TGI (A549 NSCLC): > 100 µM
- GI50 (HCC-2998 colon): 2.1 µM
- TGI (HCC-2998 colon): 4.71 µM
- GI50 (MDA-MB-468 breast): 2.19 µM
- TGI (MDA-MB-468 breast): 6.05 µM
- GI50 (LOX IMVI melanoma): 1.56 µM
- TGI (LOX IMVI melanoma): 3.08 µM
- GI50 (HOP-92 NSCLC): 2.56 µM
- TGI (HOP-92 NSCLC): 57.9 µM
- GI50 (CAKI-1 renal): 2.26 µM
- TGI (CAKI-1 renal): > 100 µM
- GI50 (HT29 colon): 2.33 µM
- TGI (HT29 colon): 4.93 µM
- GI50 (UACC-257 melanoma): 3.1 µM
- TGI (UACC-257 melanoma): > 100 µM
- GI50 (SF-268 CNS): 3.33 µM
- TGI (SF-268 CNS): > 100 µM
- GI50 (SK-MEL-2 melanoma): 2.35 µM
- TGI (SK-MEL-2 melanoma): 6.17 µM
- GI50 (HOP-62 NSCLC): 3.2 µM
- TGI (HOP-62 NSCLC): 17.6 µM
- GI50 (EKVX NSCLC): 3.48 µM
- TGI (EKVX NSCLC): > 100 µM
- GI50 (SNB-75 CNS): 1.11 µM
- TGI (SNB-75 CNS): 6.44 µM
- GI50 (SF-295 CNS): 2.59 µM
- TGI (SF-295 CNS): 8.27 µM
- GI50 (HCT-116 colon): 1.86 µM
- TGI (HCT-116 colon): 4.46 µM
- GI50 (SR leukemia): 1.86 µM
- TGI (SR leukemia): 6.01 µM
- GI50 (MOLT-4 leukemia): 2.06 µM
- TGI (MOLT-4 leukemia): 6.04 µM
- GI50 (IGROV1 ovarian): 3.03 µM
- TGI (IGROV1 ovarian): > 100 µM
- GI50 (NCI-H23 lung): 2.88 µM
- TGI (NCI-H23 lung): 14.1 µM
- GI50 (HS 578T breast): 2.58 µM
- TGI (HS 578T breast): 20.4 µM
- GI50 (SK-OV-3 ovarian): 15.5 µM
- TGI (SK-OV-3 ovarian): > 100 µM
- GI50 (NCI-H226 lung): 5.79 µM
- TGI (NCI-H226 lung): > 100 µM
- GI50 (MCF7 breast): 1.62 µM
- TGI (MCF7 breast): > 100 µM
- GI50 (CCRF-CEM leukemia): 2.26 µM
- TGI (CCRF-CEM leukemia): 7.46 µM
- GI50 (M14 melanoma): 2.82 µM
- TGI (M14 melanoma): > 100 µM
- GI50 (OVCAR-4 ovarian): 4.3 µM
- TGI (OVCAR-4 ovarian): > 100 µM
- GI50 (BT-549 breast): 2.6 µM
- TGI (BT-549 breast): 8.56 µM
- GI50 (RXF 393 renal): 1.59 µM
- TGI (RXF 393 renal): 3.4 µM
- GI50 (K-562 leukemia): 2.68 µM
- TGI (K-562 leukemia): > 100 µM
- GI50 (A498 renal): > 100 µM
- TGI (A498 renal): > 100 µM
- GI50 (SK-MEL-5 melanoma): 2.63 µM
- TGI (SK-MEL-5 melanoma): 9.85 µM
- GI50 (RPMI-8226 leukemia): 1.86 µM
- TGI (RPMI-8226 leukemia): 5.03 µM
- GI50 (T-47D breast): 3.13 µM
- TGI (T-47D breast): > 100 µM

From PubChem BioAssay (NCI)
